Results taken from paper PMC3679022, “A Cancer Specific Cell-Penetrating Peptide, BR2, for the Efficient Delivery of an scFv into Cancer Cells” (PLoS ONE, 2013).

System: HCT116 cells
Test: Detection of apoptosis by annexin V-FITC / 7-AAD flow cytometry
Format: cell-based, human
Conditions: proteins 2 µM, staurosporine 0.5 µM, 24 h
Experimental: In addition, apoptotic cells were identified by staining with annexin V-FITC (150 ng/ml) and 7 amino-actinomycin D (7-AAD; BD Biosciences, San Diego, CA). 1×10^6 HCT116 cells were treated with PBS, staurosporine (0.5 µM), or peptide-fused scFvs (each, 2 µM) as described above. At the designated time, cells were washed twice with PBS (pH 7.4), harvested and resuspended in 500 µl of binding buffer supplemented with Annexin-V fluos (1∶100 diluted; BioBud, Seoul, Korea), and incubated for 15 min at 25°C in the dark. To detect necrosis, 7AAD was added prior to measurement. Samples were immediately subjected to FACS analysis with a FACSCalibur flow cytometer (FL1 and FL3) and WinMDI software (Joe Trotter, Scripps Research Institute). 1×10^4 cells per sample were analyzed by flow cytometry.
Figure 5 The BR2-anti-Ras scFv fusion protein promotes apoptosis by blocking Ras signaling in Ras-mutated HCT116 cells. […] The numbers on the top of the quadrants indicate the percentage of apoptotic and late apoptotic/necrotic cells counted from dot plots taken from one representative experiment, performed in triplicate. […] Changes in Ras activity level in HCT116 cells treated with anti-Ras scFv and BR2- and Tat-scFv fusion proteins (each, 1 and 2 µM) were determined by an ELISA-based activity assay; results are expressed as relative Ras activity (%). […]

`CN[C@@H]1C[C@H]2O[C@@](C)([C@@H]1OC)n1c3ccccc3c3c4c(c5c6ccccc6n2c5c31)C(=O)NC4` [staurosporine] was tested, and the “cells in the apoptotic stage (apoptotic and late apoptotic/necrotic)” value was 61.6%.
